Reference: ChEMBL document CHEMBL4376802, “State of the Art in Respiratory Syncytial Virus Drug Discovery and Development” (J Med Chem, 2019)

Columns and labels:
Human orthopneumovirus [1] = assay: Antiviral activity against RSV A2 infected in A549 cells incubated for 3 days by cell titer glo-based luminescence assay; type: functional, organism-based; settings: human respiratory syncytial virus, A2, A549, 72 h
[2] = Antiviral activity against RSV B-WST infected in Hep2 cells preincubated for 1 hr followed by RSV infection and measured after 3 days by ELISA method; type: functional, cell-based; settings: human respiratory syncytial virus, HEp-2
Human orthopneumovirus [3] = assay: Antiviral activity against RSV A2 infected in Hep2 cells preincubated for 1 hr followed by RSV infection and measured after 3 days by ELISA method; type: functional, organism-based; settings: human respiratory syncytial virus, A2, HEp-2
[4] = test system: Respiratory syncytial virus; assay: Antiviral activity against Respiratory syncytial virus; type: functional, organism-based; settings: human respiratory syncytial virus
Human orthopneumovirus [5] = assay: Antiviral activity against RSV A2 infected in HAE-derived cells; type: functional, organism-based; settings: human respiratory syncytial virus
[6] = test system: Respiratory syncytial virus; assay: Antiviral activity against Respiratory syncytial virus by CPE reduction assay; type: functional, organism-based; settings: human respiratory syncytial virus
[7] = test system: Respiratory syncytial virus; assay: Antiviral activity against recombinant RSV infected in HeLa cells assessed as reduction in eGFP expression after 3 days by laser microscopic analysis; type: functional, organism-based; settings: human respiratory syncytial virus, 72 h
[8] = Antiviral activity against RSV B-WST infected in Hep2 cells CPE reduction assay; type: functional, cell-based; settings: human respiratory syncytial virus, HEp-2
Human orthopneumovirus [9] = assay: Antiviral activity against RSV A2 infected in Hep2 cells by CPE reduction assay; type: functional, organism-based; settings: human respiratory syncytial virus, A2, HEp-2
[10] = Inhibition of Respiratory syncytial virus RNA-dependent RNA polymerase
[11] = Oral bioavailability in BALB/c mouse; type: ADME, organism-based; settings: in vivo
Human orthopneumovirus [12] = assay: Antiviral activity against HRSV expressing m-cherry infected in Hep2 cells after 48 hrs post infection by fluorescence based assay; type: functional, organism-based; settings: human respiratory syncytial virus, HEp-2, 48 h
[13] = Oral bioavailability in dog; type: ADME, organism-based, Canis lupus familiaris; settings: in vivo
[14] = Oral bioavailability in rat; type: ADME, organism-based; settings: in vivo
Human orthopneumovirus [15] = assay: Antiviral activity against RSV type B; type: functional, organism-based; settings: human respiratory syncytial virus
Influenza A virus = assay: Antiviral activity against influenza A virus; type: functional, organism-based
Human orthopneumovirus [16] = assay: Antiviral activity against RSV type A; type: functional, organism-based; settings: human respiratory syncytial virus
Hepatitis C virus = assay: Antiviral activity against Hepatitis C virus; type: functional, organism-based, Hepacivirus hominis
Human respirovirus 3 = assay: Antiviral activity against Human parainfluenza virus 3; type: functional, organism-based
[17] = Antiviral activity against RSV type A 689 infected in Hep2 cells assessed as reduction in virus-induced cytopathic effect after 5 days by resazurin dye based PCR analysis; type: functional, cell-based; settings: human respiratory syncytial virus, 689, HEp-2, 120 h
[18] = Antiviral activity against RSV type A VAN1160 infected in Hep2 cells assessed as reduction in virus-induced cytopathic effect after 5 days by resazurin dye based PCR analysis; type: functional, cell-based; settings: human respiratory syncytial virus, VAN1160, HEp-2, 120 h
[19] = Antiviral activity against RSV type A Memphis 37 infected in Hep2 cells assessed as reduction in virus-induced cytopathic effect after 5 days by resazurin dye based PCR analysis; type: functional, cell-based; settings: human respiratory syncytial virus, Memphis 37, HEp-2, 120 h
[20] = Antiviral activity against RSV type A 492 infected in Hep2 cells assessed as reduction in virus-induced cytopathic effect after 5 days by resazurin dye based PCR analysis; type: functional, cell-based; settings: human respiratory syncytial virus, 492, HEp-2, 120 h
Human orthopneumovirus [21] = assay: Antiviral activity against RSV A2 infected in Hep2 cells assessed as reduction in virus-induced cytopathic effect after 5 days by resazurin dye based PCR analysis; type: functional, organism-based; settings: human respiratory syncytial virus, A2, HEp-2, 120 h
[22] = Antiviral activity against RSV type A 1211 infected in Hep2 cells assessed as reduction in virus-induced cytopathic effect after 5 days by resazurin dye based PCR analysis; type: functional, cell-based; settings: human respiratory syncytial virus, 1211, HEp-2, 120 h
[23] = Antiviral activity against RSV type B 1276 infected in Hep2 cells assessed as reduction in virus-induced cytopathic effect after 5 days by resazurin dye based PCR analysis; type: functional; settings: human respiratory syncytial virus, 1276, HEp-2, 120 h; pooled result: one value given for 5 cell lines, strains, targets or settings
[24] = Antiviral activity against RSV B-WST infected in Hep2 cells assessed as reduction in virus-induced cytopathic effect after 6 days by resazurin dye based PCR analysis; type: functional, cell-based; settings: human respiratory syncytial virus, HEp-2, 144 h
[25] = Antiviral activity against RSV B infected in HeLa cells; type: functional, cell-based; settings: human respiratory syncytial virus
Human orthopneumovirus [26] = assay: Antiviral activity against RSV A infected in HeLa cells; type: functional, organism-based; settings: human respiratory syncytial virus, type A
[27] = Plasma clearance in Beagle dog at 2 mg/ml, iv or 1.2 mg/ml, po measured up to 24 hrs by LC-MS/MS analysis; type: ADME, organism-based, Canis lupus familiaris
Human orthopneumovirus [28] = assay: Antiviral activity against Respiratory syncytial virus A plaque reduction assay; type: functional, organism-based
[29] = Antiviral activity against Respiratory syncytial virus B plaque reduction assay; type: functional, Human respiratory syncytial virus B
[30] = Oral bioavailability in mouse; type: ADME, organism-based; settings: in vivo

## O=c1n(Cc2nc(-c3nccs3)cn2CCCCO)c2cnccc2n1C1CC1
Human orthopneumovirus [1]
  EC50: 58 nM

## O=C(NC1CC1)c1cc2c(s1)-c1ccccc1N(C(=O)c1ccc(NC(=O)c3cccnc3N3CCC4(CC3)COC4)cc1)CC2
[2]
  EC50: > 50000 nM
Human orthopneumovirus [3]
  EC50: 10 nM

## Cc1ccc(NS(C)(=O)=O)c(C(=O)N2CCCC[C@H]2c2cc3nc4c(c(N5CCOCC5)n3n2)CCCC4)c1
[4]
  EC50: 0.56 nM

## CC1(C(=O)N2CC3(C2)C(=O)N(Cc2nc4c(n2CCCC(F)(F)F)CCCC4)c2ccccc23)CC1
Human orthopneumovirus [1]
  EC50: < 100 nM

## CNc1nc(N)nc2c1ncn2[C@@H]1O[C@](C)(CO[P@@](=O)(N[C@@H](C)C(=O)OC(C)C)Oc2ccccc2)[C@@H](O)[C@H]1F
Human orthopneumovirus [5]
  EC50: 0.052 nM

## CC(C)OC(=O)N1CCC2(CC1)C(=O)N(Cc1nc3cc(Cl)ccc3n1CCCC#N)c1cnccc12
[6]
  EC50: 0.024 nM

## O=c1n(Cc2cc3cnccc3n2CCCC(F)(F)F)c2cnccc2n1CC(F)(F)F
[7]
  EC50: 0.25 nM

## CC(C)CCn1c(Cn2c(=O)n(C3CCN(S(C)(=O)=O)CC3)c3ccccc32)nc(=O)c2ccccc21
[6]
  EC50: 5.8 nM

## CCc1cc(C(=O)N2CCc3sccc3[C@H]2C)nc2cc(-c3ccc(N4CC[C@H](C(=O)O)C4)cc3F)nn12
[4]
  EC50: 2.75 nM

## O=c1n(Cc2cc3cc(Cl)ccc3n2CCCCO)c2cnccc2n1C1CC1
[7]
  EC50: 2 nM

## Cc1cc2n(Cc3nc(OCC4CCOC4)c4cc(C#N)ccc4n3)c(=O)c3ccccc3n2n1 (configuration not stated)
[6]
  EC50: 2.8 nM

## CC(C)CCn1c(CN2C(=O)C3(CC3)c3ccccc32)nc2cc(CN)ccc21
[4]
  EC50: 31 nM

## Cc1cn(Cc2nc3ccccc3s2)c(=O)n(Cc2ccc(-c3csnn3)cc2)c1=O
[8]
  EC50: > 50000 nM
Human orthopneumovirus [9]
  EC50: 1600 nM

## O=C(NC1CC1)c1cc2c(s1)-c1ccccc1N(C(=O)c1ccc(NC(=O)c3ccccc3-c3ccccc3)cc1)CC2
[2]
  EC50: > 20000 nM
Human orthopneumovirus [3]
  EC50: 750 nM

## COC(=O)N1CC2(C1)C(=O)N(Cc1ncc3cc(C)ccc3c1-c1cncnc1)c1ccccc12
[6]
  EC50: 0.2 nM

## COc1cc(C(=O)NC[C@@](O)(c2cc3c(c(-c4ccc(F)cc4)n2)NC[C@@]3(C)N)C(F)(F)F)ccc1OCCO
[10]
  IC50: < 1000 nM
[4]
  EC50: < 1000 nM

## Cc1cccc(-c2ccc([C@@H]3[C@@H](CO)N4CCCCN(S(=O)(=O)c5cn(C)cn5)C[C@@H]34)cc2)c1
[8]
  EC50: > 50000 nM
Human orthopneumovirus [9]
  EC50: 3300 nM

## NC1CCN(c2ncc(CN3C(=O)C4(CC4)c4ccc(F)cc43)c(NCCCO)n2)C1 (configuration not stated)
Human orthopneumovirus [1]
  EC50: 34 nM

## CCc1ccc(NS(C)(=O)=O)c(C(=O)N(C)[C@@H](CC)c2cc3nc(N4CC[C@H](N)C4)c(C)cn3n2)c1
[4]
  EC50: 0.15 nM

## CC(C)OC(=O)N1CC2(C1)C(=O)N(Cc1nc3cc(Br)ccc3n1CCCO)c1ccccc12
[11]
  bioavailability: 72%
[6]
  EC50: 0.8 nM

## c1coc(-c2nn3c(Cn4cnc5ccccc54)nnc3s2)c1
[4]
  EC50: 660 nM

## Cc1cccc2ncnc(N3CCCC[C@H]3c3cc4nc(N5CCC5)cc(N5CCOCC5)n4n3)c12
[4]
  EC50: 10 nM

## O=C1N(Cc2nc3cc(Cl)ccc3n2C2CCS(=O)(=O)C2)c2cnccc2C12CC2 (configuration not stated)
[6]
  EC50: 1.9 nM

## N#Cc1ccc(-c2ccc3c(c2)[C@H]2[C@H](CCN2C(=O)c2ccccc2F)[C@H](CO)N3)cc1
[8]
  EC50: 6800 nM
Human orthopneumovirus [9]
  EC50: 1400 nM

## O=C(O)c1cc(C(=O)O)n(Cc2ccc(Cl)cc2Cl)n1
Human orthopneumovirus [12]
  EC50: 122000 nM

## Cc1ccc([C@]23Cn4cccc4C(=O)N2CCN3C(=O)c2conc2C)cn1
Human orthopneumovirus [5]
  EC50: 8.4 nM
[13]
  bioavailability: 100%
[14]
  bioavailability: 59%

## Nc1ccn([C@@H]2O[C@@](CO)(CCl)[C@@H](O)[C@H]2F)c(=O)n1 [ALS-8112]
Human orthopneumovirus [15]
  EC50: 90 to 450 nM
Influenza A virus
  EC50: > 100000 nM
Human orthopneumovirus [16]
  EC50: 90 to 450 nM
Hepatitis C virus
  EC50: > 100000 nM
Human respirovirus 3
  EC50: 1300 nM

## Cc1cnc(N2CC3(CCOCC3)C2)c(C(=O)Nc2ccc(C(=O)N3CCc4cc(C(=O)Nc5c(C)cccc5F)sc4-c4ccccc43)cc2)c1 [PC-786]
[17]
  EC50: 0.46 nM
[18]
  EC50: 0.46 nM
[19]
  EC50: 0.46 nM
[20]
  EC50: 0.46 nM
Human orthopneumovirus [21]
  EC50: 0.5 nM
[22]
  EC50: 0.46 nM
[23]
  EC50: 20.2 nM
[24]
  EC50: 27.3 nM

## CS(=O)(=O)CCCn1c(Cn2c(=O)n(CC(F)(F)F)c3ccncc32)cc2cc(Cl)ccc21 [RILEMATOVIR]
[7]
  EC50: 0.46 to 0.5 nM
[25]
  EC50: 0.2 to 20 nM
Human orthopneumovirus [26]
  EC50: 0.2 to 20 nM
[27]
  clearance: 9 mL/min/kg

## NCc1ccc2c(c1)nc(CN1C(=O)C3(CC3)c3ccc(F)cc31)n2CCCC(F)(F)F [SISUNATOVIR]
Human orthopneumovirus [28]
  EC50: 0.1 to 1.4 nM
[13]
  bioavailability: 63%
[29]
  EC50: 0.1 to 1.4 nM
[30]
  bioavailability: 46%

## O=C1Nc2ccccc2C(c2ccccc2)=N[C@@H]1Nc1nnc(-c2ncc(C(F)(F)F)cc2N2CCOCC2)o1 [ZELICAPAVIR]
[4]
  EC50: < 400 nM
